Experimental data as given in article PMC11198769, “Enhancement of transcription efficiency by TAR-Tat system increases the functional expression of human olfactory receptors” (PLOS ONE, 2024).

Tests used:
Assay in all cases: hOR assay (GloSensor cAMP luciferase), dose-response
Assay type in all cases: cell-based
OR10H3 = molecular target: T1, OR10H3 (Homo sapiens, UniProt O60404); conditions: OR10H3, with or without the TAR-Tat system
T1 construct: Lucy tag (N); expressed in transfected cells; host or cells: Flp-In T-REx-293 cells stably expressing RTP1S, Gαolf and Ric8-b
T1 sequence (O60404 1-316): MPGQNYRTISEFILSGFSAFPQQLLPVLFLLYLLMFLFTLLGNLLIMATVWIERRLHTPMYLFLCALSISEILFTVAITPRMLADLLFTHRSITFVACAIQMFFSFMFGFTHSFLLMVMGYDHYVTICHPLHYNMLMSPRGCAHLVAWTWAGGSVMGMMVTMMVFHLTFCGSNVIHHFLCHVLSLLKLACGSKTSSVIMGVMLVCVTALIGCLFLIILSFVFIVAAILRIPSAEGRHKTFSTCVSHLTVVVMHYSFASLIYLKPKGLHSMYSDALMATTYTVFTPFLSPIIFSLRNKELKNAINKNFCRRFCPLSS

OR2Z1 = molecular target: T2, OR2Z1 (Homo sapiens, UniProt Q8NG97); conditions: OR2Z1, with or without the TAR-Tat system
T2 construct: Lucy tag (N); FLAG (N); Rho tag (N); expressed in transfected cells; host or cells: Flp-In T-REx-293 cells stably expressing RTP1S, Gαolf and Ric8-b
T2 sequence (Q8NG97 1-314): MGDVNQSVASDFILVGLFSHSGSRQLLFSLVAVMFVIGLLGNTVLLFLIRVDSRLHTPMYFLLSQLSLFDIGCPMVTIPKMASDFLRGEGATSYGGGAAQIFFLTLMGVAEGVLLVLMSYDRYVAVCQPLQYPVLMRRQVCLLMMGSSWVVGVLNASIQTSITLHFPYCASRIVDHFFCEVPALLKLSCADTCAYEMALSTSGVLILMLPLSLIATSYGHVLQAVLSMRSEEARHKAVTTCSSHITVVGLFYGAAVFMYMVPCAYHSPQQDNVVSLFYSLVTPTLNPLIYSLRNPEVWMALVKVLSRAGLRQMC

OR5M3 = molecular target: T3, OR5M3 (Homo sapiens, UniProt Q8NGP4); conditions: OR5M3, with or without the TAR-Tat system
T3 construct: Lucy tag (N); FLAG (N); Rho tag (N); expressed in transfected cells; host or cells: Flp-In T-REx-293 cells stably expressing RTP1S, Gαolf and Ric8-b
T3 sequence (Q8NGP4 1-307): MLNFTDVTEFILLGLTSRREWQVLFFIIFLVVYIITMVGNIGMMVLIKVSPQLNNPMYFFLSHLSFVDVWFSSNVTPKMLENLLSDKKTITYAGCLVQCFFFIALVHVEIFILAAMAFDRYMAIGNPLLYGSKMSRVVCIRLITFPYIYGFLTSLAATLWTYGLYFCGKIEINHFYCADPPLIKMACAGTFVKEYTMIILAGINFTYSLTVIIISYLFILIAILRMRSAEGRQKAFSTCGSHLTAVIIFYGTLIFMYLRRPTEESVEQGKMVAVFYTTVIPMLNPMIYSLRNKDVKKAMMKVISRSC

OR8B4 = molecular target: T4, OR8B4 (Homo sapiens, UniProt Q96RC9); conditions: OR8B4, with or without the TAR-Tat system
T4 construct: Lucy tag (N); FLAG (N); Rho tag (N); expressed in transfected cells; host or cells: Flp-In T-REx-293 cells stably expressing RTP1S, Gαolf and Ric8-b
T4 sequence (Q96RC9 1-309): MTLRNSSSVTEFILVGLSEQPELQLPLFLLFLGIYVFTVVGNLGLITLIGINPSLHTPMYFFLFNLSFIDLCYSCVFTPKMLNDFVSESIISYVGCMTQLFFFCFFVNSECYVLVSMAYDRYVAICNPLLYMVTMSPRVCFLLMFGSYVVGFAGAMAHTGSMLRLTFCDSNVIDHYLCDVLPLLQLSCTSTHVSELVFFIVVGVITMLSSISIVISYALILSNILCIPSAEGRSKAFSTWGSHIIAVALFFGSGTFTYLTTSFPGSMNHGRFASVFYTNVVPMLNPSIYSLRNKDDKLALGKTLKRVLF

Measured: concentration-dependent response to n-hexanal

CCCCCC=O [n-hexanal]
no concentration-dependent response: OR10H3 | OR2Z1 | OR5M3 | OR8B4
